Results published in patent US11953435B2, “Zinc-responsive fluorophores” (Northwestern University, priority 2019, dated 2024).

assay: Octanol-water partition coefficient (log P); type: physicochemical; conditions: 1:1 HEPES buffer and 1-octanol
Procedure: Aqueous solutions were prepared by using de-ionized water with resistivity […], obtained using a Milli-Q water purification system. In order to properly compare the photophysical properties of ZincBY-2, ZincBY-3, and ZincBY-4 to ZincBY-1, the photophysical properties of ZincBY-1 we remeasured. Tested values differed from the previously published values (Ref. B2; incorporated by reference in its entirety). It was determined that copper was present in the aqueous buffer used for in vitro analysis of the previous samples. The corrected values are used herein, utilizing buffers that are copper-free. Stock solutions of ZincBY-1, ZincBY-2, ZincBY-3, and ZincBY-4 were prepared at concentrations of 5 mM and stored at −20° C. in aliquots that were used immediately after thawing for each experiment. Unless otherwise stated, all spectroscopic methods were conducted in aqueous buffer containing 50 mM HEPES (pH 7.2) and 0.1 M KNO3. […] Fluorescence spectra were acquired using a PerkinElmer LS 55 fluorescence spectrophotometer. […] Quantum yields for apo and holo ZincBY-1, ZincBY-2, ZincBY-3, and ZincBY-4 were determined by plotting absorbance vs. fluorescence intensity of solutions containing ZincBY-1, ZincBY-2, ZincBY-3, or ZincBY-4 at probe concentrations ranging from 50-250 nM. […] Fluorescein dissolved in 0.1 N NaOH was used as the quantum yield standard, using a literature-determined quantum yield of 0.95.^3 For all fluorophore solutions, fluorescence excitation was set at 490 nm and fluorescence emission was integrated from 510 nm to 650 nm. […] Fluorescence spectra were recorded using zinc probes (ZincBY-1, ZincBY-2, ZincBY-3, or ZincBY-4; 200 nM) and ZnSO4 (various concentrations). […] Free Zn^2+ was calculated according to a previously reported method (Ref. B4; incorporated by reference in its entirety). […] The fluorescence spectra of zinc probes (ZincBY-2, ZincBY-3, or ZincBY-4; 200 nM) wasere measured at various pH values (4.5-11). […] The fluorescence spectra were compared to that of ZincBY-2 (200 nM), ZincBY-3 (200 nM), or ZincBY-4 (200 nM) in the presence of 10 μM TPEN. […]

Row | SMILES | LogP
1 | Cc1cc(C)c(C2=C3C=CC(OCCN=[N+]=[N-])=[N+]3[B-](F)(F)n3c2ccc3N(CCN(Cc2ccccn2)Cc2ccccn2)Cc2ccccn2)c(C)c1 [ZincBY-2, N1-(7-(2-azidoethoxy)-5,5-difluoro-10-mesityl-5H-4λ4,5λ4-dipyrrolo[1,2-c:2′,1′-f][1,3,2]diazaborinin-3-yl)-N1,N2,N2-tris(pyridin-2-ylmethyl)ethane-1,2-diamine] | ~1.25
2 | Cc1cc(C)c(C2=C3C=CC(OCCN)=[N+]3[B-](F)(F)n3c2ccc3N(CCN(Cc2ccccn2)Cc2ccccn2)Cc2ccccn2)c(C)c1 [ZincBY-3, N1-(7-(2-aminoethoxy)-5,5-difluoro-10-mesityl-5H-4λ4,5λ4-dipyrrolo[1,2-c:2′,1′-f][1,3,2]diazaborinin-3-yl)-N1,N2,N2-tris(pyridin-2-ylmethyl)ethane-1,2-diamine] | ~0.15
3 | CC(=O)NCCOc1ccc2n1[B-](F)(F)[N+]1=C(N(CCN(Cc3ccccn3)Cc3ccccn3)Cc3ccccn3)C=CC1=C2c1c(C)cc(C)cc1C [ZincBY-4, N-(2-((7-((2-(bis(pyridin-2-ylmethyl)amino)ethyl)(pyridin-2-ylmethyl)amino)-5,5-difluoro-10-mesityl-5H-5λ4,6λ4-dipyrrolo[1,2-c:2′,1′-f][1,3,2]diazaborinin-3-yl)oxy)ethyl)acetamide] | ~0.33
